# Test results reported in patent EP0279079B1, “Purine derivatives as interleukin-1 inhibitors” (HOECHST MARION ROUSSEL, Inc., priority 1986, dated 1988).
# What was measured:
# [1] = system: polymorphonuclear neutrophil (PMN); assay: PMN adherence on nylon fiber column; format: cell-based, human; conditions: for percent adherence of PMN on the nylon column: three conditions: M199 "control", IL-1 80U/ml, "LPS KINE"
# Description: (§1) Purified human IL-1 was obtained from Cistron Technology, Pinebrook, New Jersey. As is known, the production of IL-1 from macrophages or circulating monocytes can be stimulated by the presence of bacterial lipopolysaccharides. Stites et al, Basic and Clinical Immunology, page 87 (1984). Accordingly, in vitro-generated IL-1 was obtained through the incubation of mononuclear leukocytes. Mononuclear leukocytes (3 x 10^6/ml) from ficoll-hypaque separation were incubated in medium 199 (M199) containing 10% fresh autologous serum with or without lipopolysaccharides 5ng/ml or with or without supernatant from C. albicans culture for 18 hours at 37° C (10% CO2) in LAB-TEK Flaskettes (Miles Inc., Naperville, Illinois). The suspension was centrifuged (150g X 10 minutes) and the supernatant filtered (0.45 micron 4) and frozen (-70° C).
# Purified PMN (5 x 10^6/ml) were incubated 30 minutes at 37°C in M199, "NONE", LPS (1ng/ml), "LPS", mononuclear leukocyte conditioned medium, "CONT KINES", or in LPS stimulated mononuclear leukocyte conditioned medium, "LPS KINES". One ml was pipetted onto the top of a nylon fiber column and incubated at 37°C for 30 minutes. The PMN in the effluent samples were counted and the percent adherence of PMN on the column determined.
# Two tenths ml of purified PMN (1 x 10^7/ml) was incubated 30 minutes at 37°C in M199, "control", or M199 containing IL-1 (80U/ml), "IL-1", or in LPS stimulated mononuclear leukocyte conditioned medium, "LPS KINE", with or without pentoxifylline (0.1 or 50 micrograms/ml).
# Following incubation the samples were diluted to a final concentration of 5 x 10^6/ml with M199 (2% serum). One ml was placed onto the top of a nylon fiber column and incubated at 37°C for 30 minutes. The PMN in the effluent samples were counted and the percent adherence of PMN on the nylon column calculated.
# [2] = system: polymorphonuclear neutrophil (PMN); assay: PMN chemotaxis (directed migration) under agarose, chemoattractant FMLP; format: cell-based, human; conditions: for directed migration inhibited by "LPS KINE": LPS stimulated mononuclear leukocyte conditioned M199 2% serum; for directed migration inhibited by interleukin-1: MEM containing IL-1 at 0 to 80 Units/ml
# Description: as §1
# Neutrophils were placed in the center well of a triplet and the chemoattractant (FMLP 10^-7M) was placed in one outer well and M199 was placed in the opposite well. Following 2 hours incubation at 37° C the plates were fixed and stained and the zones of migration measured. The directed migration was the distance in mm that the leading front of PMN moved towards the chemoattractant.
# Pure PMN (5 x 10^6/ml) were incubated for 30 minutes at 37°C with or without pentoxifylline (0.1 or 50 micrograms/ml) in M199 2% serum, "NO ADD", M199 2% serum containing LPS (1ng/ml), "LPS", mononuclear leukocyte conditioned M199 2% serum, "CONT KINE", or LPS stimulated mononuclear leukocyte conditioned M199 2% serum, "LPS KINE". The PMN were concentrated 10 fold prior to application in the under agarose chemotaxis assay.
# Pure PMN (5 x 10^6/ml) were incubated for 30 minutes at 37°C with or without pentoxifylline (0.1 or 50 micrograms/ml) in M199 5% serum, "NO ADD", M199 5% serum containing supernatant from C. albicans culture, "C.ALB", mononuclear leukocyte conditioned M199 5% serum, "CONT KINE", or C. albicans stimulated mononuclear leukocyte conditioned M199 5% serum, "C. ALB KINE". The PMN were concentrated 10 fold prior to application in the under agarose chemotaxis assay.
# Pure PMN (5 x 10^6/ml) were incubated for 30 minutes at 37°C with or without pentoxifylline (0.1 or 50 micrograms/ml) in minimum essential medium (MEM) or MEM containing IL-1 at 0 to 80 Units/ml. The PMN were concentrated 10 fold prior to application inthe under agarose chemotaxis assay.
# [3] = pentoxifylline 0.1 micrograms/ml
# [4] = pentoxifylline 50 micrograms/ml
compound,measurement,setting,value
"CC(=O)CCCCn1c(=O)c2c(ncn2C)n(C)c1=O [Pentoxifylline, pentoxifylline]",percent adherence of PMN on the nylon column,[1]; [3],decreased
same,percent adherence of PMN on the column,"[1]; pentoxifylline 50 micrograms/ml, all four conditions: M199 ""NONE"", LPS 1ng/ml, ""CONT KINES"", ""LPS KINES"", 30 minutes at 37°C",decreased
same,percent adherence of PMN on the nylon column,[1]; [4],decreased
same,"directed migration inhibited by ""LPS KINE""",[2]; [3],increased
same,directed migration inhibited by interleukin-1,[2]; [3],increased
same,"directed migration inhibited by ""C.ALB KINE""","[2]; pentoxifylline 50 micrograms/ml, C. albicans stimulated mononuclear leukocyte conditioned M199 5% serum",increased
same,"directed migration inhibited by ""LPS KINE""",[2]; [4],increased
same,directed migration inhibited by interleukin-1,[2]; [4],increased
same,"directed migration inhibited by ""CONT KINE""","[2]; pentoxifylline 50 micrograms/ml, mononuclear leukocyte conditioned M199 5% serum",increased
